Conditions: rat; liver microsomes; pH 7.4; 15.0 min; 1.0 µM

Row | SMILES | half-life
1 | CCCCn1cc2c(c1-c1ccc(Br)cc1)c(=O)n(C)c(=O)n2C | 7.68 min
2 | Cc1ccccc1C(=O)N1CCc2cc(-c3nc(NC(=O)c4ccc5c(c4)OCO5)sc3C)ccc21 | > 30 min
3 | CCCNC(=O)c1ccc2c(c1)ncn2-c1cc(C)cc(C)c1 | 17 min
4 | COc1cc2c3cc1Oc1c(O)c(OC)cc4c1[C@@H](Cc1ccc(cc1)Oc1cc(ccc1O)C[C@H]3N(C)CC2)N(C)CC4 | 29.8 min
5 | COc1ccccc1C(=O)Nc1nnc(SCc2cc(=O)c3ccccc3[nH]2)s1 | 7.49 min
6 | CN1C(=O)CN=C(c2ccc[nH]2)c2cc(Cl)ccc21 | 16 min
7 | Cc1ccc(-c2ccnc(N3CCC(C(N)=O)CC3)n2)cc1 | 2.35 min
8 | O=C(Nc1ccc(Oc2ccnc3[nH]ccc23)c(F)c1)c1cccn(-c2ccc(F)cc2)c1=O | 13.1 min
9 | O=C(Cc1cccc(OC(F)(F)F)c1)Nc1ccc(CCCCc2nnc(NC(=O)Cc3ccccn3)s2)nn1 | 20.9 min
10 | COc1ccc(-c2ccc3ncc(Nc4cccnc4OC)n3n2)cn1 | 10.8 min
11 | CN(C)CCCN1c2ccc(O)cc2Sc2ccc(Cl)cc21 | 10.7 min
12 | COC(=O)c1cc2occc2n1Cc1nc(-c2ccc(C)cc2)oc1C | 3.86 min
13 | CN1CCN(C(=O)c2ccc3cc(CCNc4ncnc5ccc(C#N)cc45)ccc3c2)CC1 | 8.11 min
14 | Cc1ccc(-c2cc(C(=O)Nc3ccc(S(=O)(=O)N(C)Cc4nccs4)cc3)c3ccccc3n2)cc1C | 4.1 min
15 | C/C=C1/CN2CC[C@@]34c5ccccc5N(C)[C@@H]3[C@@H]2C[C@@H]1[C@H]4C(=O)OC | 4.13 min
16 | CC(C)CN(CC(=O)N(CCCN1CCCC1=O)CC(N)=O)C(=O)CNCCc1ccccc1F | > 30 min
17 | Fc1cc(Nc2nc(-c3ccncc3)nc3ccccc23)ccc1-c1cccnc1 | 17 min
18 | COc1ccc(OC)c(C(=O)Nc2nc(-c3ccccc3)cs2)c1 | 20 min
19 | Cc1ccc(O)c(-c2cc(-c3ccccc3C)[nH]n2)c1 | 24.4 min
20 | COc1ccc(-c2nc(N3CCOCC3)c3sc(CN(C)c4ncc(C(=O)NO)cn4)cc3n2)cn1 | > 30 min
21 | C=CCON=C(C[C@H]1O[C@@H]2O[C@]3(C)CC[C@@H]4[C@H](C)CC[C@@H]([C@H]1C)[C@@]24OO3)[C@H]1O[C@@H]2O[C@]3(C)CC[C@H]4[C@H](C)CC[C@@H]([C@@H]1C)[C@@]24OO3 | 2.8 min
22 | Fc1ccc(Nc2nc(Nc3ccncc3)nc3ccccc23)cc1F | > 30 min
23 | O=C(Nc1ccc(S(=O)(=O)Nc2nccs2)cc1)c1ccc2ccccc2c1 | > 30 min
24 | COc1cccc(CNc2ccc(S(=O)(=O)Nc3ccc(N4CCNCC4)cc3)cc2)c1O | > 30 min
25 | Cc1cc(C)c(C(=O)Nc2cccc([S+](=O)([O-])N3CCCCC3)c2)[nH]1 | 3 min

Row | SMILES | half-life
26 | COc1ccc(Nc2cnc3ccc(-c4ccc(OC)c(OC)c4)nn23)cc1 | 6.77 min
27 | CCOc1ccc(CCNC(=O)c2cc3ccccc3n2C)cc1OCC | 1.38 min
28 | COc1cccc(-n2ncc3c2CCCC3NC(=O)c2ccccn2)c1 (stereo not drawn) | 11 min
29 | CC1=C(C(=O)Nc2ccccc2)C(c2ccccc2Br)N=C(Nc2nc3ccccc3o2)N1 (stereo not drawn) | 27 min
30 | CCOC(=O)N1CCN(Cc2nc3c(c(=O)n(C)c(=O)n3C)n2Cc2cccc(C)c2)CC1 | 4.9 min
31 | Cc1nc2c(-c3ccccc3)cnn2c(N)c1-c1ccccc1 | > 30 min
32 | CCN1C(=O)c2ccccc2[S@](=O)c2ccc(C(=O)N[C@H](C)c3ccc4ccccc4c3)cc21 | 5.2 min
33 | O=[S+]([O-])(Nc1ccccc1)c1ccc(NCc2ccc(Cl)cc2O)cc1 | 1.8 min
34 | Cc1nn2c(c1-c1ccccc1-c1ccccc1)N(Cc1ccc(O)cc1)CCC2 | 1.97 min
35 | CN1CCc2cc3c(cc2C1)OCO3 | 1 min
36 | Nc1ncccc1-c1nc2ccc(-c3ccccc3)nc2n1-c1ccc(C2(N)CCC2)cc1 | > 30 min
37 | N=c1c2c(ccn1CCc1ccccc1)Oc1ccc3ccccc3c1C2c1ccccc1 (stereo not drawn) | > 30 min
38 | CN(Cc1ccc(/C=C/C(=O)NO)cc1)CC12CC3CC(CC(C3)C1)C2 | 2.89 min
39 | COc1ccc(CN2CCN(C(=O)c3cc4c(s3)CCC4)CC2)cc1 | 1.9 min
40 | COc1ccccc1N1CCN(c2ccc3cc(S(=O)(=O)N4CCCCC4)ccc3n2)CC1 | 2.16 min
41 | O=C(Nc1nc(-c2ccccc2)cs1)c1ccncc1NS(=O)(=O)c1ccc2c(c1)CCC2 | 5.6 min
42 | Cc1ccnc(NC(=S)N2CCN(c3ccc(N)cc3)CC2)c1 | > 30 min
43 | FC(F)(F)c1ccc(CNc2nc(-c3ccccc3C(F)(F)F)nc3ccccc23)cc1 | > 30 min
44 | CCNC(=O)N1CCCN(c2ccc(C(=O)NCCc3ccc(Cl)cc3Cl)cc2NC(=O)c2cccc(Cl)c2)CC1 | 0.9 min
45 | Cc1ccc(S(=O)(=O)Nc2ccc(OC(F)(F)F)cc2C(=O)Nc2nc(-c3ccccc3)cs2)cc1 | 24 min
46 | CC[C@@]1(O)C(=O)OCc2c1cc1n(c2=O)Cc2c-1nc1ccccc1c2CCNC(C)C | > 30 min
47 | CCn1nc(C2CCN(C(=O)CCO)CC2)nc1-c1cnc(N)c(-c2nnc(C(C)(C)C)o2)n1 | > 30 min
48 | Fc1ccc(-c2csc3ncnc(NCc4ccc5c(c4)OCO5)c23)cc1 | 19.2 min
49 | COc1ccc(-n2nc(C3CCCN([S+](=O)([O-])c4cccc(C(F)(F)F)c4)C3)[nH]c2=O)cc1 (stereo not drawn) | 6.33 min
50 | O=C1CCCC2=C1C(c1[nH]ncc1Cl)N=C(Nc1nc3ccccc3o1)N2 (stereo not drawn) | 13.5 min

Row | SMILES | half-life
51 | O=C(Nc1ccccc1)C1CCN(c2ncc(-c3ccc4c(c3)OCCCO4)s2)CC1 | 1.44 min
52 | O=C1CCCC2=C1C(C1CCCCC1Cl)N=C(NC1NC3CCCCC3S1)N2 (stereo not drawn) | 10.9 min
53 | CC(C)Oc1ccc(CNC(=O)C2CCN(C(=O)N3CCOc4ccc(Cl)cc43)CC2)cc1 | 9.17 min
54 | O=C(c1ccc2ccccc2c1)N1CCN(c2ccc(O)cc2)CC1 | > 30 min
55 | O=C(c1csnn1)N1CCC2(CCCN(C(c3ccccc3)c3ccccc3)C2)CC1 | 2.1 min
56 | COc1ccccc1Nc1ccnc(N2CCN(C(=O)c3ccc(C)cc3)CC2)n1 | 5.68 min
57 | O=C1CCCC2=C1C1(CCCC1)N=C(Nc1nc3ccccc3o1)N2 | 2.7 min
58 | Cc1ccnc(NC(=S)N2CCN(c3ccccc3C(F)(F)F)CC2)c1 | 2 min
59 | CC(=O)Nc1ccc(C(=O)Nc2ccccc2N)cc1 | > 30 min
60 | O=C(Nc1ccc(F)c(C(F)(F)F)c1)Nc1nnc(-c2ccncc2)s1 | > 30 min
61 | COc1ccnc(NC(=S)N2CCN(c3cc(C(F)(F)F)cc(C(F)(F)F)c3)CC2)c1 | > 30 min
62 | N#Cc1ccc(-c2csc(N3CCC(C(N)=O)CC3)n2)cc1 | 16.2 min
63 | O=C(Nc1ccc(S(=O)(=O)Nc2nccs2)cc1)c1cccnc1 | > 30 min
64 | Cn1nnnc1Sc1ncnc2scc(-c3cc4ccccc4o3)c12 | 1.05 min
65 | O=C(Nc1ccc(F)cc1F)c1cc(-c2ccc[nH]2)n[nH]1 | 16.7 min
66 | CN1CCCC(CC2c3ccccc3Sc3ccccc32)C1 (stereo not drawn) | 1.4 min
67 | CC(C)Oc1ccc(C(=O)Nc2ccc3c(c2)CCCN3C(=O)c2cccs2)cc1 | 4.8 min
68 | CCOC(=O)c1ccc(NC2CCCCC2)c(N)c1 | 2.5 min
69 | O=S(=O)(Nc1nccs1)c1ccc(NCc2cccc(Cl)c2Cl)cc1 | 25 min
70 | Cc1ccc(S(=O)(=O)Nc2cnccc2C(=O)Nc2nc(-c3ccc(C)c(C)c3)cs2)cc1 | 2.1 min
71 | O=C(c1nc(-c2cccnc2)c2ccccn12)N1CCN(c2ncccn2)CC1 | 8.43 min
72 | Cn1c(=O)c2cc(C(=O)NCCCN3CCN(c4ccccc4F)CC3)sc2c2ccccc21 | 1.97 min
73 | CCCOC(=O)c1ccc(Oc2c(-c3ccc(O)cc3O)n[nH]c2C)cc1 | 3.04 min

Reference: PubChem BioAssay AID1508591
